The supplement of paper PMC8612539
Converted amounts (≈) assume the structure as drawn.

Legend:
Pasteurella multocida = assay: minimum inhibitory concentration (MIC)
Procedure: (§1)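 Broth microdilution MIC (Sensititre BOPO7F bovine plate, CLSI methods) of 19 antimicrobials against field isolates of P. multocida, M. haemolytica, H. somni (deep nasopharyngeal swabs) and E. coli, Enterococcus spp. (rectal swabs) from weaned dairy heifers. Incubation 16-24 h at 35 C. MIC is the lowest concentration preventing visible growth. Values with <= or > lie at the tested range limits. Trimethoprim-sulfamethoxazole is given as the trimethoprim component of a 1:19 mixture.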

Enterococcus spp. = assay: minimum inhibitory concentration (MIC)
Procedure: as §1

CN1C[C@@H]2C[C@H]1CN2c1cc2c(cc1F)c(=O)c(C(=O)O)cn2C1CC1 [Danofloxacin]
minimum inhibitory concentration [µg/mL]
Details | Enterococcus spp. | Pasteurella multocida
isolate (source animal id): 2 | 0.25 (≈ 0.7 µM) | –
isolate (source animal id): 10 | – | > 1
isolate (source animal id): 11 | – | 1 (≈ 2.8 µM)
isolate (source animal id): 12 | – | > 1
isolate (source animal id): 19 | – | > 1
isolate (source animal id): 23 | – | 1 (≈ 2.8 µM)
isolate (source animal id): 26 | – | > 1
isolate (source animal id): 35 | > 1 | –
isolate (source animal id): 42 | 1 (≈ 2.8 µM) | –
isolate (source animal id): 44 | 1 (≈ 2.8 µM) | –
isolate (source animal id): 79 | 1 (≈ 2.8 µM) | –
isolate (source animal id): 88 | 0.25 (≈ 0.7 µM) | –
isolate (source animal id): 91 | 0.25 (≈ 0.7 µM) | –
isolate (source animal id): 92 | 1 (≈ 2.8 µM) | –
isolate (source animal id): 98 | – | > 1
isolate (source animal id): 104 | – | 1 (≈ 2.8 µM)
isolate (source animal id): 111 | 0.25 (≈ 0.7 µM) | –
isolate (source animal id): 115 | – | ≤ 0.12
isolate (source animal id): 117 | – | > 1
isolate (source animal id): 118 | – | > 1
isolate (source animal id): 121 | – | ≤ 0.12
isolate (source animal id): 122 | 1 (≈ 2.8 µM) | –
isolate (source animal id): 123 | 0.5 (≈ 1.4 µM) | –
isolate (source animal id): 124 | – | > 1
isolate (source animal id): 125 | – | > 1
isolate (source animal id): 128 | – | ≤ 0.12
isolate (source animal id): 131 | – | > 1
isolate (source animal id): 133 | 1 (≈ 2.8 µM) | –
isolate (source animal id): 135 | – | > 1
isolate (source animal id): 136 | – | ≤ 0.12
isolate (source animal id): 140 | – | > 1
isolate (source animal id): 144 | – | 1 (≈ 2.8 µM)
isolate (source animal id): 146 | – | 1 (≈ 2.8 µM)
isolate (source animal id): 150 | – | ≤ 0.12
isolate (source animal id): 151 | – | ≤ 0.12
isolate (source animal id): 153 | – | 1 (≈ 2.8 µM)
isolate (source animal id): 155 | – | > 1
isolate (source animal id): 157 | – | > 1
isolate (source animal id): 158 | 1 (≈ 2.8 µM) | –
isolate (source animal id): 160 | – | ≤ 0.12
isolate (source animal id): 164 | – | ≤ 0.12
isolate (source animal id): 165 | – | ≤ 0.12
isolate (source animal id): 167 | – | ≤ 0.12
isolate (source animal id): 168 | 0.5 (≈ 1.4 µM) | > 1
isolate (source animal id): 169 | 0.5 (≈ 1.4 µM) | ≤ 0.12
isolate (source animal id): 170 | – | ≤ 0.12
isolate (source animal id): 171 | 0.5 (≈ 1.4 µM) | ≤ 0.12
isolate (source animal id): 172 | – | ≤ 0.12
isolate (source animal id): 173 | – | > 1
isolate (source animal id): 174 | – | ≤ 0.12
isolate (source animal id): 175 | > 1 | ≤ 0.12
isolate (source animal id): 176 | – | ≤ 0.12
isolate (source animal id): 177 | > 1 | ≤ 0.12
isolate (source animal id): 178 | – | ≤ 0.12
isolate (source animal id): 179 | – | ≤ 0.12
isolate (source animal id): 181 | 0.5 (≈ 1.4 µM) | –
isolate (source animal id): 182 | 1 (≈ 2.8 µM) | ≤ 0.12
isolate (source animal id): 183 | 1 (≈ 2.8 µM) | –
isolate (source animal id): 187 | 0.5 (≈ 1.4 µM) | –
isolate (source animal id): 190 | 0.5 (≈ 1.4 µM) | –
isolate (source animal id): 192 | – | ≤ 0.12
isolate (source animal id): 193 | – | ≤ 0.12
isolate (source animal id): 194 | 0.5 (≈ 1.4 µM) | –
isolate (source animal id): 195 | 0.5 (≈ 1.4 µM) | ≤ 0.12
isolate (source animal id): 196 | – | ≤ 0.12
isolate (source animal id): 197 | 0.5 (≈ 1.4 µM) | ≤ 0.12
isolate (source animal id): 198 | – | > 1
isolate (source animal id): 199 | – | ≤ 0.12
isolate (source animal id): 200 | – | ≤ 0.12
isolate (source animal id): 201 | – | ≤ 0.12
isolate (source animal id): 203 | – | ≤ 0.12
isolate (source animal id): 204 | – | ≤ 0.12
isolate (source animal id): 205 | – | > 1
isolate (source animal id): 206 | – | ≤ 0.12
isolate (source animal id): 207 | – | ≤ 0.12
isolate (source animal id): 208 | – | ≤ 0.12
isolate (source animal id): 209 | – | ≤ 0.12
isolate (source animal id): 210 | – | > 1
isolate (source animal id): 211 | 1 (≈ 2.8 µM) | –
isolate (source animal id): 213 | – | ≤ 0.12
isolate (source animal id): 214 | > 1 | –
isolate (source animal id): 216 | – | ≤ 0.12
isolate (source animal id): 222 | 0.5 (≈ 1.4 µM) | –
isolate (source animal id): 223 | 0.5 (≈ 1.4 µM) | > 1
isolate (source animal id): 227 | – | ≤ 0.12
isolate (source animal id): 228 | 0.5 (≈ 1.4 µM) | –
isolate (source animal id): 229 | – | > 1
isolate (source animal id): 230 | 0.5 (≈ 1.4 µM) | –
isolate (source animal id): 233 | – | > 1
isolate (source animal id): 234 | – | > 1
isolate (source animal id): 235 | 0.5 (≈ 1.4 µM) | –
isolate (source animal id): 236 | > 1 | –
isolate (source animal id): 237 | – | > 1
isolate (source animal id): 239 | > 1 | –
isolate (source animal id): 241 | 0.5 (≈ 1.4 µM) | > 1
isolate (source animal id): 244 | 0.5 (≈ 1.4 µM) | –
isolate (source animal id): 245 | – | > 1
isolate (source animal id): 246 | 0.5 (≈ 1.4 µM) | –
isolate (source animal id): 247 | 0.5 (≈ 1.4 µM) | 1 (≈ 2.8 µM)
isolate (source animal id): 250 | 0.25 (≈ 0.7 µM) | > 1
isolate (source animal id): 252 | > 1 | –
isolate (source animal id): 254 | – | > 1
isolate (source animal id): 255 | – | > 1
isolate (source animal id): 258 | – | ≤ 0.12
isolate (source animal id): 261 | – | > 1
isolate (source animal id): 262 | – | > 1
isolate (source animal id): 268 | 0.25 (≈ 0.7 µM) | –
isolate (source animal id): 269 | – | 0.25 (≈ 0.7 µM)
isolate (source animal id): 270 | – | > 1
isolate (source animal id): 274 | – | > 1
isolate (source animal id): 275 | – | > 1
isolate (source animal id): 276 | – | > 1
isolate (source animal id): 277 | – | 0.25 (≈ 0.7 µM)
isolate (source animal id): 278 | – | > 1
isolate (source animal id): 279 | – | 1 (≈ 2.8 µM)
isolate (source animal id): 280 | – | > 1
isolate (source animal id): 282 | 1 (≈ 2.8 µM) | –
isolate (source animal id): 284 | – | > 1
isolate (source animal id): 285 | 1 (≈ 2.8 µM) | > 1
isolate (source animal id): 287 | – | > 1
isolate (source animal id): 289 | 0.5 (≈ 1.4 µM) | –
isolate (source animal id): 290 | 0.5 (≈ 1.4 µM) | ≤ 0.12
isolate (source animal id): 294 | – | ≤ 0.12
isolate (source animal id): 295 | – | ≤ 0.12
isolate (source animal id): 296 | 0.5 (≈ 1.4 µM) | > 1
isolate (source animal id): 298 | 0.5 (≈ 1.4 µM) | –
isolate (source animal id): 301 | 0.5 (≈ 1.4 µM) | –
isolate (source animal id): 307 | – | ≤ 0.12
isolate (source animal id): 310 | > 1 | ≤ 0.12
isolate (source animal id): 311 | – | ≤ 0.12
isolate (source animal id): 312 | – | > 1
isolate (source animal id): 313 | – | > 1
isolate (source animal id): 315 | – | > 1
isolate (source animal id): 316 | – | > 1
isolate (source animal id): 320 | 0.5 (≈ 1.4 µM) | –
isolate (source animal id): 331 | 1 (≈ 2.8 µM) | –
isolate (source animal id): 333 | 0.5 (≈ 1.4 µM) | –
isolate (source animal id): 341 | > 1 | –
